Reference: patent US11377679B2, “Multi-well-based cell culture test device for rapid antibiotic susceptibility testing” (priority 2016, dated 2022)
Values after ≈ are worked out from the molar mass of the structure shown.

Key:
Type in all cases: cell-based
P. aeruginosa ATCC 27853 = assay: antibiotic susceptibility testing using the cell culture test device (DRAST), reference strain; conditions: Pseudomonas aeruginosa, ATCC27853, observed until 6 h
Source text: (§1) Referring first to (a) of FIG. 4, a liquid medium containing a gelling agent is mixed with a biological agent to prepare a mixture solution as a first fluid. The liquid medium may include at least about 95% by weight of water and can be solidified due to the presence of the gelling agent. As the gelling agent, there may be exemplified agar, agarose, gelatin, alginate, collagen or fibrin. The use of agar or agarose is preferred. For example, agar may be used in an amount of 0.5 to 4% by weight in the liquid medium. The liquid medium usually requires no nutrients. In some examples, however, the liquid medium may include nutrients. The liquid medium may be a solution including a medium stimulating the division of particular cells.
(§2) Referring next to (b) of FIG. 4, the mixture solution is provided to a recess 421 formed at the bottom of a first sub-well. The mixture solution may be loaded in an amount corresponding to the volume of the recess of the first sub-well. The volume of the mixture solution loaded into the recess of the first sub-well is preferably from 10 μl to 200 μl, more preferably from 10 μl to 150 μl. If the volume of the mixture solution loaded into the first sub-well is less than the lower limit, the density of cells in the mixture solution is low, making it difficult to observe the cells. […]

P. aeruginosa [1] = assay: susceptibility testing using the cell culture test device (DRAST), strain from blood sample
Source text: as §1
(§3) Referring next to (b) of FIG. 4, the mixture solution is provided to a recess 421 formed at the bottom of a first sub-well. The mixture solution may be loaded in an amount corresponding to the volume of the recess of the first sub-well. The volume of the mixture solution loaded into the recess of the first sub-well is preferably from 10 μl to 200 μl, more preferably from 10 μl to 150 μl. If the volume of the mixture solution loaded into the first sub-well is less than the lower limit, the density of cells in the mixture solution is low, making it difficult to observe the cells. Meanwhile, if the volume of the mixture solution loaded into the first sub-well exceeds the upper limit, the mixture solution may overflow into a second sub-well beyond a barrier. […] The micropatterned groove also allows the mixture solution to be well fixed to the desired area. […] Referring to FIG. 5, a micropatterned groove 522 is formed in the well a sample to fix the sample to only the desired area.
(§4) A blood sample positive for bacterial infection is collected and diluted with a medium containing a gelling agent.
(§5) The mixture solution is solidified to form a solid thin film immobilized with the biological agent. When the temperature of the liquid medium drops, the medium is solidified, which restricts the mobility of the biological agent. This immobilization facilitates continuous observation of the motile biological agent.
(§6) As shown in (c) of FIG. 4, a second sub-well 430 including a bioactive agent in a solid form is provided with a solvent capable of dissolving the bioactive agent. When a bioactive agent is absent in the second sub-well 430, a solution containing a bioactive agent can be provided to the second sub-well 430. Herein, the bioactive agent may include a substance selected from antibiotics, anticancer agents, drugs such as immunosuppressants, nutrients, cellular secretions, signal transducers, viruses, cells, micro RNAs, proteins, antigens, antibodies, and DNA.

P. aeruginosa [2] = assay: broth microdilution (BMD) susceptibility testing, strain from blood sample; conditions: BMD testing method
Procedure: (§7) The tests were conducted on various antibiotics that are currently used in testing organizations. […] The concentrations shown in FIG. 12 are expressed in μg/mL.

E. faecalis ATCC 29212 = assay: antibiotic susceptibility testing using the cell culture test device (DRAST), reference strain; conditions: Enterococcus faecalis, ATCC29212, observed until 6 h
Source text: as §1, §2

Enterobacter aerogenes [3] = assay: susceptibility testing using the cell culture test device (DRAST), strain from blood sample; conditions: E. aerogenes from blood sample
Source text: as §1, §3, §4, §5, §6

Enterobacter aerogenes [4] = assay: broth microdilution (BMD) susceptibility testing, strain from blood sample; conditions: E. aerogenes from blood sample; BMD testing method
Procedure: as §7

| Compound | MIC (P. aeruginosa ATCC 27853) [µg/mL] | susceptibility category (P. aeruginosa [1]) | susceptibility category (P. aeruginosa [2]) | MIC (E. faecalis ATCC 29212) [µg/mL] | susceptibility category (Enterobacter aerogenes [3]) | susceptibility category (Enterobacter aerogenes [4]) |
| --- | --- | --- | --- | --- | --- | --- |
| C[C@H]1[C@H](NC(=O)/C(=N\OC(C)(C)C(=O)O)c2csc(N)n2)C(=O)N1S(=O)(=O)O [aztreonam] | 8 (≈ 18.4 µM) | susceptible | I | – | – | – |
| CO/N=C(\C(=O)N[C@@H]1C(=O)N2C(C(=O)O)=C(COC(C)=O)CS[C@H]12)c1csc(N)n1 [cefotaxime] | – | susceptible | I | – | – | – |
| CN(C)[C@@H]1C(O)=C(C(N)=O)C(=O)[C@@]2(O)C(O)=C3C(=O)c4c(O)cccc4[C@@](C)(O)[C@H]3C[C@@H]12 [tetracycline] | – | – | – | 8 (≈ 18 µM) | – | – |
| CC1(C)S[C@@H]2[C@H](NC(=O)[C@H](C(=O)O)c3ccsc3)C(=O)N2[C@H]1C(=O)O [ticarcillin] | – | susceptible | I | – | – | – |
| colistin | – | I | susceptible | – | I | S |
